Experimental data: US10151698B2, “Selection by compartmentalized screening” (Medical Research Council, priority 2003, dated 2018)

Key:
[1] = Compartmentalisation of small molecules in water-in-fluorocarbon emulsions (epifluorescence microscopy); type: physicochemical; conditions: water-in-perfluorooctyl bromide emulsions mixed by vortexing; 24 hours after mixing
Procedure: FIG. 3. Compartmentalisation of small molecules in water-in-fluorocarbon emulsions. Water-in-perfluorooctyl bromide emulsions were made containing texas red (1 mM) and calcein (1 mM) in the aqueous phase by homogenisation as described in example 9. The two emulsions were mixed by vortexing and imaged by epifluorescence microscopy after 24 hours. No exchange of texas-red (red fluorescence) and calcein (green fluorescence) between microdroplets could be observed.
Water-in-fluorocarbon emulsions containing 95% (v/v) perfluorooctyl bromide, 5% (v/v) phosphate buffered saline containing the molecule of interest in solution, and 2% (w/v) C8F17C11H22OP(O)[N(CH2CH2)2O]2 (F8H11DMP) as surfactant were formed essentially as (Sadtler et al., 1996) by extrusion (15 times) through 14 μm filters (Osmonics) or by homogenising for 5 min at 25,000 r.p.m. using an Ultra-Turrax T8 Homogenizer (IKA) with a 5 mm dispersing tool. Emulsions were made containing a series of small fluorescent molecules dissolved in the aqueous phase at concentrations from […] to 2 mM. These molecules, including calcein, texas red, fluorescein, coumarin 102, 7-hydroxycoumarin-3-carboxylic acid and 7-diethylamino-4-methyl coumarin (coumarin 1), had molecular weights from 203 to 625 Da and Log P values—calculated using SRC's Log Kow/KowWin Program (Meylan and Howard, 1995)—ranging from −0.49 to 4.09. […]

[2] = biological target: T1, PTPIB (Homo sapiens, UniProt P18031); conditions: Johnson et al., 2002; cited from earlier work
T1 sequence (P18031 1-435): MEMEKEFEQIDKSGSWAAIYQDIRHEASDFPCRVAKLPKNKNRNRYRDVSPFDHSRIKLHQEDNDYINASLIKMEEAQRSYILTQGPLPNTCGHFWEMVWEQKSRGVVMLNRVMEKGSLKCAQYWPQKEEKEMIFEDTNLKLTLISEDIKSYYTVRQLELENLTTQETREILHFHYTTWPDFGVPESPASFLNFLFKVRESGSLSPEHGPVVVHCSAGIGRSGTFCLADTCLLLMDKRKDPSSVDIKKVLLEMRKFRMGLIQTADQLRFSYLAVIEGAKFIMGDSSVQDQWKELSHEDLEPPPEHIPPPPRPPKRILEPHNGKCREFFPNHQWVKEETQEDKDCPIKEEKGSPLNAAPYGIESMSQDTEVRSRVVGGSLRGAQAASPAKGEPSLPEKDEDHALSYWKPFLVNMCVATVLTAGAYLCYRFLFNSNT

[3] = biological target: T2, human recombinant PTPIB, residues 1-322 (Homo sapiens, UniProt P18031); test: Screening for PTPIB inhibitors using microcapsules in microfluidic systems (DiFMUP, epifluorescence microscope); type: biochemical; conditions: Example 5; 100 μM compound solution; PTPIB 50 mU/ml; fused microcapsules run up to 2 min
T2 construct: human recombinant PTPIB, residues 1-322; purchased Biomol Research Laboratories, Inc
T2 sequence (P18031 1-322): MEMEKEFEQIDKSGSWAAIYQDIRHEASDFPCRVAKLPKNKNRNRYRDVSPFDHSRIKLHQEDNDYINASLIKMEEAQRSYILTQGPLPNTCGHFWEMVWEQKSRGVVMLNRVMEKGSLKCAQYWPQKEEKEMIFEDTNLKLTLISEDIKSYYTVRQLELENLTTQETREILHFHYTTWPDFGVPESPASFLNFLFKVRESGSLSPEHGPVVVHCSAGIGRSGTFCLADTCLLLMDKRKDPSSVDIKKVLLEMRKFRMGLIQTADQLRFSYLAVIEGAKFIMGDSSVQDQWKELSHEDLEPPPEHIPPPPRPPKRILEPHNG
Procedure: Microchannels are fabricated with rectangular cross-sections using rapid prototyping in poly(dimethylsiloxane) (PDMS) (McDonald and Whitesides, 2002) and rendered hydrophobic as (Song and Ismagilov, 2003). Syringe pumps were used to drive flows (Harvard Apparatus PHD 2000 Infusion pumps). For aqueous solutions, 50 μl Hamilton Gastight syringes (1700 series, TLL) with removeable needles of 27-gaugeare used with 30-gauge Teflon tubing (Weico Wire and Cable). For the carrier fluid, 1 ml Hamilton Gastight syringes (1700 series, TLL) are used with 30-gauge Teflon needles with one hub from Hamilton (Song and Ismagilov, 2003). The carrier fluid is 9% (v/v) C6F11C2H4OH in perfluorodecaline (PFD) (Song et al., 2003). All water-soluble reagents were dissolved in (25 mM HEPES, pH 7.4, 125 mM NaCl, 1 mM EDTA), a buffer compatible with PTPIB activity.
These three steams are continuously injected into a flow of water immiscible fluorocarbon carrier fluid (9% (v/v) C6FπC2H OH in PFD). Inlet channels for the aqueous solutions are […] wide and channel for PFD is 28 μm wide. […]
The channel immediately downstream of the point of droplet formation is winding with a peak to peak distance of 50 μm for a distance of 1 mm. […] Fluorescence of the microcapsules due to production of DiFMU (excitation/emmission maxima 358/452 nm; blue fluorescence) is measured using an epifluorescence microscope.

[4] = biological target: T2, human recombinant PTPIB, residues 1-322; test: Screening for PTPIB inhibitors in water-in-oil emulsion microcapsules with fluorogenic substrate DiFMUP, multi-colour flow cytometry; type: biochemical; conditions: 100 μM compound, 37° C. for 30 min
Procedure: The syringes are fitted into the openings on both sides of the filter holder of the extruder. The compound mix is forced through the filter holder into the alternate syringe containing the decane/surfactant mix and directly forced back into the original syringe to complete one round of extrusion. In total, 7.5 rounds of extrusion are completed. The filled syringe is removed from the extruder and emptied into a 1.7 ml Axygen tube (# MCT-175-C, Axygen Scientific, Inc., Union City, Calif., USA).
The two emulsions are mixed by vortexing in ratios varying from 1:1000 to 1:1 (compound 2 emulsion: hydrocinnamic acid emulsion) and incubated at 37° C. for 30 min. Inhibitors reduce the amount of non-fluorescent substrate (DiFMUP) converted to the dephosphorylated product (DiFMU; excitation/emmission maxima 358/452 nm; blue fluorescence). […]
The double emulsions are then analysed by multi-colour flow cytometery using a MoFlo (Cytomation) flow cytometer. […]
50 μl of each of the compound mixtures is added sequentially to a solution of 1% (w/v) Span 60 and 1% (w/v) cholesterol in decane, made and held at 37° C. as example 1, whilst homogenising at 25,000 r.p.m. using an Ultra-Turrax T8 Homogenizer (IKA) with a 5 mm dispersing tool. […] Inhibitors reduce the amount of non-fluorescent substrate (DiFMUP) converted to the dephosphorylated product (DiFMU; excitation/emmission maxima 358/452 nm; blue fluorescence). […]

Molecule	exchange between microdroplets/compartments [1]	PTPIB inhibitor or not [2]	fluorescence of the microcapsules due to production of DiFMU [3]	blue fluorescence of microcapsules (DiFMU from dephosphorylation of DiFMUP by PTPIB) ([4]; Example 1, two emulsions mixed 1:1000 to 1:1)	blue fluorescence of microcapsules (DiFMU from dephosphorylation of DiFMUP by PTPIB) ([4]; Example 2, mixtures added sequentially to one oil phase)
O=C(O)CN(CC(=O)O)Cc1cc2c(cc1O)Oc1cc(O)c(CN(CC(=O)O)CC(=O)O)cc1C21OC(=O)c2ccccc21 [calcein]	No exchange				
O=C(O)CCc1ccccc1 [hydrocinnamic acid]		not a PTPIB inhibitor	exhibiting blue fluorescence	also show blue fluorescence	also show blue fluorescence
texas red	No exchange				
